# Read-outs that look alike come from different tables or passages of the source. Peptide text beside a SMILES is read from it. * marks the point of attachment. Palmitoyl = CCCCCCCCCCCCCCCC(=O)*
# B1: rHRNR2591–2684: recombinant HRNR fragment (protein, UniProt Q86YZ3 2591-2684, looked up, fragment)
# chain: SQHGSGSGHSSGYGQHGSRSGQSSRGERHGSSSGSSSHYGQHGSGSRQSSGHGRQGSGSGQSPSRGRHGSGLGHSSSHGQHGSGSGRSSSRGPY
# Columns and labels:
# [1] = test system: Staphylococcus aureus ATCC 43300; conditions: MRSA; CLSI, Mueller–Hinton broth, 5 × 10^5 CFU/mL, 18 h 37 °C, by CO-ADD
# [2] = test system: Burkholderia cepacia ATCC 25416; conditions: CFU assay, 10 mM NaP
# [3] = test system: Prevotella oralis ATCC 33321; assay: CFU assay of antimicrobial activity; type: cell-based; conditions: 10 mM NaP
# Protocol: All purified peptides and recombinant proteins were applied using a colony forming unit (CFU) assay in different media. Bacteria were grown to early log-phase in BHI, washed either with 10 mM Na-P, pH 7.4/1% TSB or pH 5.5/1% TSB, or pH 5.5 without TSB or BHI, and adjusted to a concentration of 10^4–10^5 colony forming units (CFU)/ml. For cell number control, 100 µl aliquots were diluted 1:10, 1:100 and 1:1000 and plated in duplicates on BHI agar plates. To 100 µl aliquots of the bacteria, suspended in the respective medium (10 mM Na-P buffer pH 7,0–7,4/ 1% (w/v) TSB; 10 mM Na-P buffer pH 5,5/ 1% (w/v) TSB; 10 mM Na-P buffer pH 7,0–7,4/ 1% (w/v) TSB pH 7,0–7,4/ 0,25% (w/v) glucose; […], respectively), 10 µl of a solution of the peptide or protein (two-fold dilutions, from 300 µg/ml or 150 µg/ml down to 19 ng/ml), dissolved in 0.01% (v/v) acetic acid, were added.
# (§1) Then bacteria were incubated for 2 h at ambient temperature, if not otherwise stated. 10 µl of 0.01% (v/v) acetic acid, added to 100 µl aliquots of the bacteria in the respective medium, served as negative control. From each test, 1:10 and 1:100 dilutions were generated and plated as duplicates of 100 µl aliquots on BHI agar plates. After 16 h incubation at 37 °C, CFU were counted using a colony counter (Bio Kobe, Japan) and expressed as mean of the duplicate estimation to achieve a complete dose-response curve. All experiments were performed at serial dilutions in a concentration range of 100 µg/mL −25 ng/mL for recombinant HRNR fragments and 300 or 150 µg/mL–19 ng/mL for synthetic peptides.
# [4] = test system: Clostridium perfringens ATCC 13124; conditions: CFU assay, 10 mM NaP
# [5] = test system: Candida albicans ATCC 90028; assay: CO-ADD MIC, antifungal assay (CLSI); type: cell-based; conditions: Yeast Nitrogen Base broth, 24 h 35 °C, by CO-ADD
# Protocol: (§2) Fungi strains were cultured for 3 days on Yeast Extract-Peptone Dextrose (YPD) agar at 30 °C. A yeast suspension of 1 × 10^6 to 5 × 10^6 cells/mL (as determined by OD530) was prepared from five colonies. These stock suspensions were diluted with Yeast Nitrogen Base (YNB) broth to a final concentration of 2.5 × 10^3 CFU/mL. […] Plates were covered and incubated at 35 °C for 24 h without shaking.
# [6] = test system: Cryptococcus neoformans ATCC 208821; assay: CO-ADD MIC, antifungal assay (CLSI); type: cell-based; conditions: Yeast Nitrogen Base broth, 24 h 35 °C, by CO-ADD
# Protocol: as §2
# [7] = test system: Klebsiella pneumoniae ATCC 13883; conditions: CFU assay, 10 mM NaP
# [8] = test system: Acinetobacter baumannii ATCC 19606; assay: CO-ADD MIC, broth microdilution (CLSI); type: cell-based; conditions: Mueller–Hinton broth, 5 × 10^5 CFU/mL, 18 h 37 °C, by CO-ADD
# Text: (§3) They were defined as the lowest peptide
# (§4) Further details of the screening
# [9] = test system: Pseudomonas aeruginosa ATCC 27853; assay: CO-ADD MIC, broth microdilution (CLSI); type: cell-based; conditions: Mueller–Hinton broth, 5 × 10^5 CFU/mL, 18 h 37 °C, by CO-ADD
# Text: as §3, §4
# E. coli ATCC 25922 = assay: CO-ADD MIC, broth microdilution (CLSI); type: cell-based, Escherichia coli; conditions: Mueller–Hinton broth, 5 × 10^5 CFU/mL, 18 h 37 °C, by CO-ADD
# Text: as §3, §4
# [10] = test system: Streptococcus pneumoniae ATCC 33400; assay: CFU assay of antimicrobial activity; type: cell-based; conditions: 10 mM NaP
# Protocol: (§5) All purified peptides and recombinant proteins were applied using a colony forming unit (CFU) assay in different media. Bacteria were grown to early log-phase in BHI, washed either with 10 mM Na-P, pH 7.4/1% TSB or pH 5.5/1% TSB, or pH 5.5 without TSB or BHI, and adjusted to a concentration of 10^4–10^5 colony forming units (CFU)/ml. For cell number control, 100 µl aliquots were diluted 1:10, 1:100 and 1:1000 and plated in duplicates on BHI agar plates. To 100 µl aliquots of the bacteria, suspended in the respective medium (10 mM Na-P buffer pH 7,0–7,4/ 1% (w/v) TSB; […]; 10 mM Na-P buffer pH 7,0–7,4/ 1% (w/v) TSB pH 7,0–7,4/ 0,25% (w/v) glucose; 10 mM Na-P buffer pH 5,5/ 0,25% (w/v) glucose, respectively), 10 µl of a solution of the peptide or protein (two-fold dilutions, from 300 µg/ml or 150 µg/ml down to 19 ng/ml), dissolved in 0.01% (v/v) acetic acid, were added.
# as §1
# [11] = test system: Streptococcus pyogenes ATCC 12344; assay: CFU assay of antimicrobial activity; type: cell-based; conditions: 10 mM NaP
# Protocol: as §5, §1
# [12] = test system: Klebsiella pneumonia ATCC 700603; conditions: MDR strain; CLSI, Mueller–Hinton broth, 5 × 10^5 CFU/mL, 18 h 37 °C, by CO-ADD
# S. aureus ATCC 6538 = conditions: CFU assay, 10 mM NaP
# [13] = test system: Propionibacterium acnes ATCC 6919; assay: CFU assay of antimicrobial activity; type: cell-based; conditions: 10 mM NaP
# Protocol: (§6) All purified peptides and recombinant proteins were applied using a colony forming unit (CFU) assay in different media. Bacteria were grown to early log-phase in BHI, washed either with 10 mM Na-P, pH 7.4/1% TSB or pH 5.5/1% TSB, or pH 5.5 without TSB or BHI, and adjusted to a concentration of 10^4–10^5 colony forming units (CFU)/ml. For cell number control, 100 µl aliquots were diluted 1:10, 1:100 and 1:1000 and plated in duplicates on BHI agar plates. To 100 µl aliquots of the bacteria, suspended in the respective medium (10 mM Na-P buffer pH 7,0–7,4/ 1% (w/v) TSB; 10 mM Na-P buffer pH 5,5/ 1% (w/v) TSB; 10 mM Na-P buffer pH 7,0–7,4/ 1% (w/v) TSB pH 7,0–7,4/ 0,25% (w/v) glucose; 10 mM Na-P buffer pH 5,5/ 0,25% (w/v) glucose, respectively), 10 µl of a solution of the peptide or protein (two-fold dilutions, from 300 µg/ml or 150 µg/ml down to 19 ng/ml), dissolved in 0.01% (v/v) acetic acid, were added.
# as §1
# [14] = test system: Staphylococcus epidermidis ATCC 14990; assay: CFU assay of antimicrobial activity; type: cell-based; conditions: 10 mM NaP
# Protocol: as §6, §1
# P. aeruginosa ATCC 10145 = conditions: CFU assay, 10 mM NaP, pH 5.5, 0.25% glucose
# E. coli ATCC 11775 = assay: CFU assay of antimicrobial activity; type: cell-based, Escherichia coli; conditions: 10 mM NaP
# Protocol: as §6, §1
# [15] = test system: Salmonella typhimurium ATCC 13311; assay: CFU assay of antimicrobial activity; type: cell-based; conditions: 10 mM NaP
# Protocol: as §6, §1
# collagenase = conditions: 1 µg, 1 h 37 °C, SDS-PAGE, silver staining; at higher concentrations, n = 3
# C. albicans ATCC 24433 = assay: CFU assay of antimicrobial activity; type: cell-based, Candida albicans; conditions: 10 mM NaP, pH 5.5, 0.25% glucose
# Protocol: Bacteria were cultivated in either brain heart infusion medium (BHI), lysogeny broth (LB) or tryptic soy broth (TSB)[88]. If not otherwise stated, bacteria were incubated under shaking conditions (37 °C at 170 rpm) or as indicated on the ATCC- or DSM-data sheets. Candida albicans was cultured for 3 days on Yeast Extract-Peptone Dextrose (YPD) agar at 30 °C and yeast suspensions at appropriate density were treated with CIDAMPs as indicated.
# as §6, §1
# Lys-C = biological target: T1, Lys-C (Lysobacter enzymogenes, UniProt Q7M135); assay: Protease sensitivity testing of HRNR; type: in vitro ADME; conditions: 1 µg, 1 h 37 °C, SDS-PAGE, silver staining; at higher concentrations, n = 3
# T1 construct: purchased Roche
# T1 sequence (Q7M135 whole entry): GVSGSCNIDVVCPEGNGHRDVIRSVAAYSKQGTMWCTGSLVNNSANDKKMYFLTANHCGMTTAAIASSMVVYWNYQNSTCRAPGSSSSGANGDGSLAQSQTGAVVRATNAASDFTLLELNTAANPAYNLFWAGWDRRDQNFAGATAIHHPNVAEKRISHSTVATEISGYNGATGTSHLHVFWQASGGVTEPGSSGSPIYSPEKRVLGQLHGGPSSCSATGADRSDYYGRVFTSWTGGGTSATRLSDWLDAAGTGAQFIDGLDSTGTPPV
# Text: (§7) All data shown are representatives (n = 3).
# Thereafter samples were subjected to a
# Data shown are representatives
# (§8) Lane 16 (“without protease”)
# (§9) Table 1) have been directly applied. Note the presence of multiple bands, which originate
# (§10) from oligomeric HRNR-complexes12. Data shown are representatives (n=3).
# trypsin = type: in vitro ADME; conditions: 500 ng, 0.7 nM protease, pH 7.5, 15 h, Western blot, n = 3
# Text: as §7, §8, §9, §10
Molecule,Minimal inhibitory concentration (MIC) [1],"LD90 ([2]; pH 7.3, 0.25% glucose)",Minimal inhibitory concentration (MIC) [5],Minimal inhibitory concentration (MIC) [6],"LD90 ([7]; pH 5.5, 0.25% glucose)",Minimal inhibitory concentration (MIC) [8],Minimal inhibitory concentration (MIC) [9],Minimal inhibitory concentration (MIC) (E. coli ATCC 25922),"LD90 ([10]; pH 7.3, 0.25% glucose)","LD90 ([11]; pH 7.3, 0.25% glucose)",Minimal inhibitory concentration (MIC) [12],"LD90 (S. aureus ATCC 6538; pH 5.5, 0.25% glucose)",LD90 (P. aeruginosa ATCC 10145),"LD90 (E. coli ATCC 11775; pH 5.5, 0.25% glucose)",other results
CCCCCCCCCCCCCCCC(=O)NCC(=O)N[C@@H](CCCNC(=N)N)C(=O)N[C@@H](Cc1c[nH]cn1)C(=O)NCC(=O)N[C@@H](CO)C(=O)NCC(=O)N[C@@H](CC(C)C)C(=O)NCC(=O)N[C@@H](Cc1c[nH]cn1)C(=O)N[C@@H](CO)C(=O)N[C@@H](CO)C(=O)N[C@@H](CO)C(=O)N[C@@H](Cc1c[nH]cn1)C(=O)NCC(=O)N[C@@H](CCC(N)=O)C(=O)N[C@@H](Cc1c[nH]cn1)C(=O)NCC(=O)N[C@@H](CO)C(=O)NCC(=O)N[C@@H](CO)C(=O)NCC(=O)N[C@@H](CCCNC(=N)N)C(=O)O [Pal-HR 1-18] (Palmitoyl-GRHGSGLGHSSSHGQHGSGSGR-OH),>32 µg/mL,75 µg/mL,>32 µg/mL,>32 µg/mL,0.3 µg/mL,32 µg/mL,>32 µg/mL,>32 µg/mL,2.35 µg/mL,0.15 µg/mL,>32 µg/mL,1.18 µg/mL,,,"LD90 ([3]; pH 6.5, 0.25% glucose): 37.5 µg/mL; LD90 ([3]; pH 7.3, 1% TSB): 18.75 µg/mL; LD90 ([4]; pH 5.5, 0.25% glucose): 37.5 µg/mL; LD90 ([4]; pH 7.3, 0.25% glucose): 4.7 µg/mL; LD90 ([4]; pH 7.3, 1% TSB): 18.75 µg/mL; LD90 ([10]; pH 7.3, 1% TSB): 9.38 µg/mL; LD90 ([11]; pH 7.3, 1% TSB): 9.38 µg/mL; LD90 (S. aureus ATCC 6538; pH 7.3, 1% TSB): > 300 µg/mL; LD90 ([13]; pH 5.5, 0.25% glucose): 0.3 µg/mL; LD90 ([13]; pH 7.3, 0.25% glucose): 0.59 µg/mL; LD90 ([13]; pH 7.3, 1% TSB): 1.18 µg/mL; LD90 ([14]; pH 7.3, 1% TSB): > 300 µg/mL"
CCCCCCCCCCCCCCCC(=O)N[C@@H](CO)C(=O)N[C@@H](Cc1c[nH]cn1)C(=O)N[C@@H](Cc1c[nH]cn1)C(=O)N[C@@H](CCCNC(=N)N)C(=O)N[C@@H](CS)C(=O)N[C@@H](CS)C(=O)N[C@@H](CCCNC(=N)N)C(=O)N[C@@H](CO)C(=O)N[C@@H](Cc1c[nH]cn1)C(=O)N[C@@H](CCCNC(=N)N)C(=O)N[C@@H](CS)C(=O)N[C@@H](CCCNC(=N)N)C(=O)N[C@@H](CCCNC(=N)N)C(=O)O [Pal-LCE-3B56–68] (Palmitoyl-SHHRCCRSHRCRR-OH),16 µg/mL,4.7 µg/mL,1 µg/mL,0.25 µg/mL,0.15 µg/mL,>32 µg/mL,>32 µg/mL,>32 µg/mL,0.59 µg/mL,0.15 µg/mL,>32 µg/mL,<0.019 µg/mL,0.075 µg/mL,0.3 µg/mL,"LD90 ([2]; pH 5.5, 0.25% glucose): >300 µg/mL; LD90 (E. coli ATCC 11775; pH 7.3, 0.25% glucose): 0.59 µg/mL; LD90 ([7]; pH 7.3, 0.25% glucose): 2.35 µg/mL; LD90 ([11]; pH 6.0, 0.25% glucose): 0.15 µg/mL; LD90 ([14]; pH 5.5, 0.25% glucose): 0.3 µg/mL; LD90 ([15]; pH 5.5, 0.25% glucose): 0.038 µg/mL; LD90 ([15]; pH 7.3, 0.25% glucose): 1.18 µg/mL"
B1,,,,,,,,,,,,,0.025 µg/mL,0.2 µg/mL,"LD100 (P. aeruginosa ATCC 10145): 0.1 µg/mL; digestion by collagenase (collagenase): sensitivity; LD100 (E. coli ATCC 11775; pH 5.5, 0.25% glucose): >100 µg/mL; LD90 (C. albicans ATCC 24433): 0.39 µg/mL; LD100 (C. albicans ATCC 24433): 6.25 µg/mL; digestion by Lys C (Lys-C): sensitivity; digestion by trypsin (trypsin): digest"

# From article PMC6399351, “Cationic Intrinsically Disordered Antimicrobial Peptides (CIDAMPs) Represent a New Paradigm of Innate Defense with a Potential for Novel Anti-Infectives” (Scientific Reports, 2019)
